From US11518760B2 (Liverpool School of Tropical Medicine, priority 2017, dated 2022)

system: C6/36 Aedes albopictus cell line infected with Wolbachia pipientis (Wolbachia strain wAlbB); experiment: In vitro insect cell line assay (anti-Wolbachia screen, SYTO 11 high content imaging); format: cell-based; conditions: 168 h; C6/36 Aedes albopictus cells infected with Wolbachia pipientis wAlbB, 7 days incubation, SYTO 11 imaging; read-out: In vitro anti-Wolbachia activity
Description: A C6/36 Aedes albopictus cell line infected with Wolbachia pipientis (Wolbachia strain wAlbB) derived from Aa23 A. albopictus cell line (O'Neill et al., 1997; Insect Mol Biol; Turner et al., (2006) J. Immunol. 7:1240-1249) was used to screen compounds. Cells were cultured in Leibovitz's L15+L-glutamine supplemented with heat-inactivated Foetal Calf Serum (HI-FCS), non-essential amino acids and tryptose phosphate broth. Culture medium was filter-sterilized through a 0.2 μm filter and stored at 4° C. Compounds were provided as 10 mM stocks in DMSO, diluted to 50 μM working stock to give final concentration of 5 μM on the test plate. Concentrated stocks were frozen at −20° C.
Prior to use in the screening assay, cell cultures were sub-passaged (6 days prior) to provide ˜90% confluent cells on Day 0 of screening assay. On Day 0 (assay set-up), the medium was removed from the stock culture flask and replaced with fresh medium. The cells were detached by scraping and cell density was calculated using an automated cell counter. The cells were then diluted at working density and aliquoted at 90 μl to each well of a Cell Carrier 384 well plate (Perkin Elmer). Cell plates were incubated at 26° C.
Control solution (DMSO-medium) was dispensed at 10 μl per well for “untreated” wells. Test solution (Drug-DMSO) was also dispensed at 10 μl (from working plate) per well for “treated” wells. The plates were incubated at 26° C., inside plastic wallet in incubator, for 7 days.
On Day 7, 25 μl of staining medium/dye (SYTO 11, Life Technologies) was added to each sample well and allowed to stain for 15 minutes in the dark. All the medium was removed from each sample well without disturbing the cells and replaced with 100 μl of fresh medium. Plates were imaged on the Operetta High Content Imaging system (Perkin Elmer) and analyzed using texture analysis through Harmony software (Perkin Elmer). The cell-based screen and analysis are described in detail in Clare et al. (2014) J Biomol Screen.

| SMILES | EC50 [nM] |
| --- | --- |
| CC1(C)CN(c2nc(NCc3ccccc3C(F)(F)F)c3cccnc3n2)CCO1 [Example 247, 2-(2,2-dimethylmorpholino)-N-(2-(trifluoromethyl)benzyl)pyrido[2,3-d]pyrimidin-4-amine] | < 0.01 |
| FC(F)(F)OC1CCN(c2nc(NCc3cccnc3C(F)(F)F)c3cccnc3n2)CC1 [Example 273, 2-(4-(trifluoromethoxy)piperidin-1-yl)-N-((2-(trifluoromethyl)pyridin-3-yl)methyl)pyrido[2,3-d]pyrimidin-4-amine] | < 0.01 |
| Clc1nc(NC2(c3ccccc3Cl)CC2)c2sccc2n1 [Example 47, 2-chloro-N-(1-(2-chlorophenyl)cyclopropyl)thieno[3,2-d]pyrimidine-4-diamine] | 1000 to 100000 |
| FC(F)(F)c1ncccc1CNc1nc(N2CCCC23CCC3)nc2ncccc12 [Example 298] | < 0.01 |
| CC(C)Nc1nc(NCc2ccc(C#N)cc2)c2cccnc2n1 [Example 126, N^4-(4-cyanobenzyl)-N^2-isopropylpyrido[2,3-d]pyrimidine-2,4-diamine] | 100 to 1000 |
| CC(C)Nc1nc(NCc2ccc(S(C)(=O)=O)cc2)c2ccccc2n1 [Example 110, N^2-isopropyl-N^4-(4-(methylsulfonyl)benzyl)quinazoline-2,4-diamine] | 1000 to 100000 |
| CC1CCCN(c2nc(NCc3cccnc3C(F)(F)F)c3cccnc3n2)C1 (stereo not shown) [Example 311, 2-(3-methylpiperidin-1-yl)-N-((2-(trifluoromethyl)pyridin-3-yl)methyl)pyrido[2,3-d]pyrimidin-4-amine] | 0.01 to 1 |
| CC(c1ccccc1C(F)(F)F)N(C)c1nc(Cl)nc2ccsc12 (stereo not shown) [Example 67, 2-chloro-N-methyl-N-(1-(2-(trifluoromethyl)phenyl)ethyl)thieno[3,2-d]pyrimidin-4-amine] | 100 to 1000 |
| CC(C)Nc1nc(NCc2cccc(Cl)c2)c2sccc2n1 [Example 18, N^4-(3-chlorobenzyl)-N^2-isopropyithieno[3,2-d]pyrimidine-2,4-diamine] | 1000 to 100000 |
| CC(C)Sc1nc(NCc2cccnc2C(F)(F)F)c2cccnc2n1 [Example 164, 2-(isopropylthio)-N-((2-(trifluoromethyl)pyridin-3-yl)methyl)pyrido[2,3-d]pyrimidin-4-amine] | 1 to 10 |
| CC1COCCN1c1nc(N2CCC2c2cccnc2C(F)(F)F)c2cccnc2n1 (stereo not shown) [Example 219, 3-methyl-4-(4-(2-(2-(trifluoromethyl)pyridin-3-yl)azetidin-1-yl)pyrido[2,3-d]pyrimidin-2-yl)morpholine] | 1 to 10 |
| FC(F)O[C@H]1CCN(c2nc(NCc3cccnc3C(F)(F)F)c3cccnc3n2)C1 [Example 281, (S)-2-(3-(difluoromethoxy)pyrrolidin-1-yl)-N-((2-(trifluoromethyl)pyridin-3-yl)methyl)pyrido[2,3-d]pyrimidin-4-amine] | 0.01 to 1 |
| CC(C)Nc1nc(NCCc2ccccc2C(F)(F)F)c2sccc2n1 [Example 45, N^2-isopropyl-N^4-(2-(trifluoromethyl)phenethyl)thieno(3,2-d]pyrimidine-2,4-diamine] | 100 to 1000 |
| CC1CN(c2nc(NCc3ccccc3C(F)(F)F)c3cccnc3n2)C[C@H](C)O1 (stereo partly drawn) [Example 268, 2-((6S)-2,6-dimethylmorpholino)-N-(2-(trifluoromethyl)benzyl)pyrido[2,3-d]pyrimidin-4-amine] | 10 to 100 |
| CC(C)Nc1nc(NCc2ccc(C(F)(F)F)nc2)c2cccnc2n1 [Example 130, N^2-isopropyl-N^4-((6-(trifluoromethyl)pyridin-3-yl)methyl)pyrido[2,3-d]pyrimidine-2,4-diamine] | 1000 to 100000 |
| FC(F)(F)c1ncccc1CNc1nc(N2CCCC2)nc2ncccc12 [Example 174, 2-(pyrrolidin-1-yl)-N-((2-(trifluoromethyl)pyridin-3-yl)methyl)pyrido[2,3-d]pyrimidin-4-amine] | 0.01 to 1 |
| CC(C)N(C)c1nc(NCc2cccnc2C(F)(F)F)c2ccccc2n1 [Example 176, N^2-isopropyl-N^2-methyl-N^4-((2-(trifluoromethyl)pyridin-3-yl)methyl)quinazoline-2,4-diamine] | 100 to 1000 |
| FC(F)(F)Oc1ccccc1CNc1ncnc2ccsc12 [Example 24, N-(2-(trifluoromethoxy)benzyl)thieno[3,2-d]pyrimidin-4-amine] | 100 to 1000 |
| FC(F)(F)c1ncccc1CNc1nc(N2CCOC3(CC3)C2)nc2ncccc12 [Example 256, 2-(4-oxa-7-azaspiro[2.5]octan-7-yl)-N-((2-(trifluoromethyl)pyridin-3-yl)methyl)pyrido[2,3-d]pyrimidin-4-amine] | < 0.01 |

| SMILES | EC50 [nM] |
| --- | --- |
| FC(F)(F)c1ncccc1CNc1nc(N2CCOCC2)nc2ncccc12 [Example 192, 2-morpholino-N-((2-(trifluoromethyl)pyridin-3-yl)methyl)pyrido[2,3-d]pyrimidin-4-amine] | 10 to 100 |
| CC1CN(c2nc(NCc3cccnc3C(F)(F)F)c3cccnc3n2)C[C@H](C)O1 (stereo partly drawn) [Example 254, 2-((6S)-2,6-dimethylmorpholino)-N-((2-(trifluoromethyl)pyridin-3-yl)methyl)pyrido[2,3-d]pyrimidin-4-amine] | 0.01 to 1 |
| FC(F)(F)c1ncccc1CNc1nc(N2CCOC(C3CC3)C2)nc2ncccc12 (stereo not shown) [Example 278, 2-(2-cyclopropylmorpholino)-N-((2-(trifluoromethyl)pyridin-3-yl)methyl)pyrido[2,3-d]pyrimidin-4-amine] | 0.01 to 1 |
| C[C@@H]1CO[C@@H](C)CN1c1nc(NCc2cccnc2C(F)(F)F)c2cccnc2n1 [Example 271, 2-((2S,5R)-2,5-dimethylmorpholino)-N-((2-(trifluoromethyl)pyridin-3-yl)methyl)pyrido[2,3-d]pyrimidin-4-amine] | 0.01 to 1 |
| FC1(F)CCN(c2nc(N3CCC3c3ccccc3C(F)(F)F)c3cccnc3n2)CC1 (stereo not shown) [Example 213, 2-(4,4-difluoropiperidin-1-yl)-4-(2-(2-(trifluoromethyl)phenyl)azetidin-1-yl)pyrido[2,3-d]pyrimidine] | 10 to 100 |
| FC(F)(F)CNc1nc(NCc2ccccc2C(F)(F)F)c2sccc2n1 [Example 42, N^2-(2,2,2-trifluoroethyl)-N^4-(2-(trifluoromethyl)benzyl)thieno[3,2-d]pyrimidine-2,4-diamine] | 100 to 1000 |
| FC(F)(F)OCC1CCCN1c1nc(NCc2cccnc2C(F)(F)F)c2cccnc2n1 (stereo not shown) [Example 299, 2-(2-((trifluoromethoxy)methyl)pyrrolidin-1-yl)-N-((2-(trifluoromethyl)pyridin-3-yl)methyl)pyrido[2,3-d]pyrimidin-4-amine] | < 0.01 |
| CC(C)Nc1nc(NCc2ccc(S(C)(=O)=O)cc2)c2ncccc2n1 [Example 123, N^2-isopropyl-N^4-(4-(methylsulfonyl)benzyl)pyrido[3,2-d]pyrimidine-2,4-diamine] | 1000 to 100000 |
| CC(C)Nc1nc(NCc2ccccc2S(C)(=O)=O)c2ncccc2n1 [Example 122, N^2-isopropyl-N^4-(2-(methylsulfonyl)benzyl)pyrido[3,2-d]pyrimidine-2,4-diamine] | 1000 to 100000 |
| FC(F)(F)c1ccccc1CNc1nc(N2CC3CC2CO3)nc2ncccc12 (stereo not shown) [Example 267, 2-(2-oxa-5-azabicyclo[2.2.1]heptan-5-yl)-N-(2-(trifluoromethyl)benzyl)pyrido[2,3-d]pyrimidin-4-amine] | < 0.01 |
| COc1ccc(CNc2nc(NC(C)C)nc3ccccc23)cc1OC [Example 140, N^4-(3,4-dimethoxybenzyl)-N^2-isopropylquinazoline-2,4-diamine] | 100 to 1000 |
| Fc1ccccc1CNc1nc(Cl)nc2ccsc12 [Example 10] | 1000 to 100000 |
| FC(F)(F)c1ncccc1CNc1nc(N2CCCC2C(F)(F)F)nc2ncccc12 (stereo not shown) [Example 264, N-((2-(trifluoromethyl)pyridin-3-yl)methyl)-2-(2-(trifluoromethyl)pyrrolidin-1-yl)pyrido[2,3-d]pyrimidin-4-amine] | < 0.01 |
| FC(F)(F)c1ccccc1CNc1nc(NCCN2CCOCC2)nc2ccsc12 [Example 90, N^2-(2-morpholinoethyl)-N^4-(2-(trifluoromethyl)benzyl)thieno[3,2-d]pyrimidine-2,4-diamine] | 1000 to 100000 |
| FC(F)(F)c1ccccc1C1CCN1c1nc(N2CCC(Cl)CC2)nc2ncccc12 (stereo not shown) [Example 212, 2-(4-chloropiperidin-1-yl)-4-(2-(2-(trifluoromethyl)phenyl)azetidin-1-yl)pyrido[2,3-d]pyrimidine] | 100 to 1000 |
| CN(Cc1ccccc1C(F)(F)F)c1nc(Cl)nc2ccsc12 [Example 49, 2-chloro-N-methyl-N-(2-(trifluoromethyl)benzyl)thieno[3,2-d]pyrimidin-4-amine] | 1 to 10 |
| CC(C)(C)Nc1ncnc2ccsc12 [Example 78] | 1000 to 100000 |
| FC(F)C1CN(c2nc(NCc3cccnc3C(F)(F)F)c3cccnc3n2)CCO1 (stereo not shown) [Example 282, 2-(2-(difluoromethyl)morpholino)-N-((2-(trifluoromethyl)pyridin-3-yl)methyl)pyrido[2,3-d]pyrimidin-4-amine] | 0.01 to 1 |
